# Assay results published in patent US10537521B2 (priority 2016, dated 2020).
# Where two headings read alike, the source gives them in different places.
# Experiments:
# [1] = after oral administration of tramadol (single dose of 100 mg); cited from earlier work
# [2] = Example 1: multiple-dose randomized 3-way crossover PK study of two IV tramadol regimens vs 100 mg oral q6h; conditions: mean; for AUCtau n: last dosing interval
# Description: A fitted curve was obtained because the second oral peak was not measured in the study. For the modeling portion of the analysis, a validated Phoenix® WinNonlin® program version 6.4 (Certara) was used for PK analysis, simulation, graphics, tables and statistical calculations. […] For purposes of nonlinear regression, the data were weighted as 1/observed. Predicted concentration-time data were calculated based on the individual fitted PK parameters.
# [3] = test system: patients undergoing abdominal surgery; conditions: initial tramadol 100 mg or morphine 5 mg i.v., repeat tramadol 50 mg or morphine 5 mg on demand; cited from earlier work
# [4] = test system: postoperative pain; conditions: after 4 to 6 hours; IV or IM intermittent injection, dose titrated to pain response; cited from earlier work
# [5] = test system: experienced opioid abusers; conditions: tramadol 100 and 200 mg IV, cited from earlier work
# [6] = Example 4: multiple dose steady-state dose proportionality study, tramadol injection 50/100 mg IV and Ultram tablet 50/100 mg oral q6h; format: in vivo, human; conditions: steady-state, healthy volunteers
# Description: The study was an open-label, single-period, randomized, parallel treatment design. Subjects received study drug every 6 hours beginning on the morning of Day 1 and ending on the morning of Day 3. The first dose on Day 1 and the last dose on Day 3 were administered after a minimum 10 hour fast.
# [7] = tramadol single […] [100 mg] p.o., humans N=12 male; cited from earlier work
# [8] = 50 mg IV regimen (h 0, 2, 4, then q4h to h 44), plasma
# [9] = 75 mg IV regimen (h 0, 3, 6, then q6h to h 42)
# [10] = 75 mg IV regimen (h 0, 3, 6, then q6h to h 42), plasma
# [11] = 100 mg oral q6h to h 42, plasma
# [12] = Tramadol dosed as 50 mg IV every 6 hours
# [13] = Tramadol dosed as 50 mg Oral (Ultram tablet) every 6 hours
# [14] = Tramadol dosed as 100 mg IV every 6 hours
# [15] = Tramadol dosed as 100 gm Oral (Ultram tablet) every 6 hours
molecule,measurement,setting,value
CN(C)C[C@H]1CCCC[C@]1(O)c1cccc(O)c1 [O-desmethyltramadol],half-life,[1],approximately 6.7 hours
same,Cmax(0-2),"[2]; 50 mg IV regimen (h 0, 2, 4, then q4h to h 44), first dose, plasma",17.1 ng/mL
same,RAC(trough),"[2]; 50 mg IV regimen (h 0, 2, 4, then q4h to h 44)",5.2872
same,AUC0-24,[2]; [8],1425 ng·h/mL
same,AUC0-48,[2]; [8],3427 ng·h/mL
same,AUC24-48,[2]; [8],2002 ng·h/mL
same,C2,[2]; [8],16.9 ng/mL
same,C48 (T48),[2]; [8],81.7 ng/mL
same,C1 h,[2]; [8],11.8 ng/mL
same,Cmax(2-4),[2]; [8],37.8 ng/mL
same,Css,[2]; [8],88.9 ng/mL
same,Tmax,[2]; [8],44.95 h
same,Tmax(0-2),[2]; [8],1.85 h
same,Tmax(2-4),[2]; [8],3.95 h
same,Tmax(44-48),[2]; [8],45.31 h
same,Cmax(0-3),"[2]; 75 mg IV regimen (h 0, 3, 6, then q6h to h 42), first dose, plasma",29.7 ng/mL
same,AUCtau n,[2]; [9],519.8 ng·h/mL
same,RAC(trough),[2]; [9],2.7237
same,AUC0-24,[2]; [10],1608 ng·h/mL
same,AUC0-48,[2]; [10],3504 ng·h/mL
same,AUC24-48,[2]; [10],1896 ng·h/mL
same,C3,[2]; [10],29.5 ng/mL
same,C48 (T48),[2]; [10],75.9 ng/mL
same,C1 h,[2]; [10],19.9 ng/mL
same,Cmax(3-6),[2]; [10],59.4 ng/mL
same,Css,[2]; [10],86.6 ng/mL
same,Tmax,[2]; [10],32.99 h
same,Tmax(0-3),[2]; [10],2.71 h
same,Tmax(3-6),[2]; [10],5.81 h
same,Tmax(42-48),[2]; [10],43.10 h
same,Cmax(0-6),"[2]; 100 mg oral q6h to h 42, first dose, plasma",60.3 ng/mL
same,AUCtau n,[2]; 100 mg oral q6h to h 42,768.4 ng·h/mL
same,RAC(trough),[2]; 100 mg oral q6h to h 42,2.7839
same,AUC0-24,[2]; [11],1655 ng·h/mL
same,AUC0-48,[2]; [11],4349 ng·h/mL
same,AUC24-48,[2]; [11],2693 ng·h/mL
same,C6,[2]; [11],42.3 ng/mL
same,C48 (T48),[2]; [11],111 ng/mL
same,C1 h,[2]; [11],41.4 ng/mL
same,Cmax,[2]; [11],146 ng/mL
same,Css,[2]; [11],128 ng/mL
same,Tmax,[2]; [11],43.97 h
same,Tmax(0-6),[2]; [11],2.04 h
same,Tmax(42-48),[2]; [11],43.97 h
same,Cmax(42-48),"[2]; 100 mg oral q6h to h 42, steady-state, plasma",146 ng/mL
CN1CC[C@]23c4c5ccc(O)c4O[C@H]2[C@@H](O)C=C[C@H]3[C@H]1C5 [morphine],responder rate (no or slight pain) within the first 90 minutes of treatment,[3],81.2%
same,reduction of pain intensity,[4],69.8%
same,ratings of “liking”,"[5]; morphine 10 and 20 mg IV, over 5 minutes, 10 experienced opioid abusers",significantly increased ratings
same,ratings of “feel drug effect” compared to placebo,"[5]; morphine 10 and 20 mg IV, over 5 minutes",significantly increased
same,ratings on the ARCI-MBG scale,[5]; morphine 20 mg IV,increased ratings
CN(C)C[C@H]1CCCC[C@]1(O)c1cccc(O)c1 [tramadol M1 metabolite],"Cmin, tramadol M1 metabolite, Mean ± SD",[6]; [12],55.9 ± 7.4 ng/mL
same,"Trough Peak, tramadol M1 metabolite, Mean ± SD",[6]; [12],0.715 ± 0.044 ratio
same,"Cmin, tramadol M1 metabolite, Mean ± SD",[6]; [13],65.9 ± 15.8 ng/mL
same,"Trough Peak, tramadol M1 metabolite, Mean ± SD",[6]; [13],0.670 ± 0.061 ratio
same,"Cmin, tramadol M1 metabolite, Mean ± SD",[6]; [14],130 ± 37 ng/mL
same,"Trough Peak, tramadol M1 metabolite, Mean ± SD",[6]; [14],0.795 ± 0.040 ratio
same,"Cmin, tramadol M1 metabolite, Mean ± SD",[6]; [15],93.6 ± 34.6 ng/mL
same,"Trough Peak, tramadol M1 metabolite, Mean ± SD",[6]; [15],0.707 ± 0.080 ratio
(+)-O-desmethyltramadol [(+)-M1],AUC,[7],1258 ± 410 ng·h/mL
same,Cmax,[7],147 ± 39 ng/mL
same,Tmax,[7],1.6 ± 0.5 h
same,t1/2,[7],6.0 ± 1.0 h
